# Measurements from patent US20150011423A1, “MEANS AND METHODS FOR ASSESSING KIDNEY TOXICITY” (BASF SE, priority 2011, published 2015).
# Marks after values point to notes of the source that are not given here.
# Tested on: rats
# Assay: 28-day repeated dose study in rats with mass spectrometry-based plasma metabolite profiling (GC-MS, LC-MS, SPE-LC-MS); treatment ratios versus control
# Settings: plasma
# [1] = male rats, day 7, high dose, Table 7a interstitial nephritis
# [2] = male rats, day 7, high dose, Table 7b interstitial nephritis
# [3] = male rats, day 14, high dose, Table 7a interstitial nephritis
# [4] = male rats, day 14, high dose, Table 7b interstitial nephritis
# [5] = male rats, day 28, high dose, Table 7a interstitial nephritis
# [6] = male rats, day 28, high dose, Table 7b interstitial nephritis
# [7] = female rats, day 28, high dose, Table 5a tubular necrosis
# [8] = female rats, day 28, high dose, Table 5b tubular necrosis
# [9] = male rats, day 28, high dose, Table 8a direct tubular effect
# [10] = male rats, day 28, high dose, Table 8b direct tubular effect
compound,measurement,setting,value
"CCc1ccccc1 [Ethyl benzene, Ethylbenzene]","Creatine, treatment ratio versus control",[1],1.4 *
same,"Creatinine, treatment ratio versus control",[1],1.41 *
same,"Eicosanoic acid (C20:0), treatment ratio versus control",[1],1.41 *
same,"Glucuronic acid, treatment ratio versus control",[1],1.08^
same,"Lignoceric acid (C24:0), treatment ratio versus control",[1],1.31 *
same,"Phosphatidylcholine (C18:2, C20:4), treatment ratio versus control",[1],1.05 *
same,"Serine, treatment ratio versus control",[1],1.12 *
same,"Sphingomyelin (d18:1, C16:0), treatment ratio versus control",[1],1.69 *
same,"Threonine, treatment ratio versus control",[1],1.31 *
same,"myo-Inositol-2-phosphate, treatment ratio versus control",[1],1.39 *
same,"Glycerol, polar fraction, treatment ratio versus control",[2],0.98^
same,"Isopalmitic acid (C16:0), treatment ratio versus control",[2],0.55 *
same,"Kynurenic acid, treatment ratio versus control",[2],0.71 *
same,"Creatine, treatment ratio versus control",[3],1.35 *
same,"Creatinine, treatment ratio versus control",[3],1.58 *
same,"Eicosanoic acid (C20:0), treatment ratio versus control",[3],1.3 *
same,"Glucuronic acid, treatment ratio versus control",[3],1.17 *
same,"Lignoceric acid (C24:0), treatment ratio versus control",[3],1.55 *
same,"Phosphatidylcholine (C18:2, C20:4), treatment ratio versus control",[3],1.06 *
same,"Serine, treatment ratio versus control",[3],1.5 *
same,"Sphingomyelin (d18:1, C16:0), treatment ratio versus control",[3],1.5 *
same,"Threonine, treatment ratio versus control",[3],1.72 *
same,"myo-Inositol-2-phosphate, treatment ratio versus control",[3],0.88^
same,"Glycerol, polar fraction, treatment ratio versus control",[4],0.87^
same,"Isopalmitic acid (C16:0), treatment ratio versus control",[4],0.57 *
same,"Kynurenic acid, treatment ratio versus control",[4],0.83 *
same,"Creatine, treatment ratio versus control",[5],1.34 *
same,"Creatinine, treatment ratio versus control",[5],1.33 *
same,"Eicosanoic acid (C20:0), treatment ratio versus control",[5],1.76 *
same,"Glucuronic acid, treatment ratio versus control",[5],1.26 *
same,"Lignoceric acid (C24:0), treatment ratio versus control",[5],1.23 *
same,"Phosphatidylcholine (C18:2, C20:4), treatment ratio versus control",[5],1.05^
same,"Serine, treatment ratio versus control",[5],1.54 *
same,"Sphingomyelin (d18:1, C16:0), treatment ratio versus control",[5],1.48 *
same,"Threonine, treatment ratio versus control",[5],2.44 *
same,"myo-Inositol-2-phosphate, treatment ratio versus control",[5],1.3 *
same,"Glycerol, polar fraction, treatment ratio versus control",[6],0.75 *
same,"Isopalmitic acid (C16:0), treatment ratio versus control",[6],0.59 *
same,"Kynurenic acid, treatment ratio versus control",[6],0.8 *
ClC(Cl)=C(Cl)C(Cl)=C(Cl)Cl [Hexachlorobutadiene],"Docosahexaenoic acid (C22:cis[4,7,10,13,16,19]6), treatment ratio versus control",[7],1.19 *
same,"Docosapentaenoic acid (C22:cis[7,10,13,16,19]5), treatment ratio versus control",[7],1.61 *
same,"Eicosanoic acid (C20:0), treatment ratio versus control",[7],1.56 *
same,"Glycerol, lipid fraction, treatment ratio versus control",[7],1.29 *
same,"Leucine, treatment ratio versus control",[7],1.34 *
same,"Phosphate (inorganic and organic phosphates), treatment ratio versus control",[7],1.19 *
same,"Hippuric acid, treatment ratio versus control",[8],0.35 *
same,"Lactate, treatment ratio versus control",[8],0.62 *
same,"Glycerol-3-phosphate, polar fraction, treatment ratio versus control",[9],1.58 *
same,"Isoleucine, treatment ratio versus control",[9],1.11 *
same,"Leucine, treatment ratio versus control",[9],1.17 *
same,"Lysophosphatidylethanolamine (C22:0), treatment ratio versus control",[9],1.33 *
same,"Ornithine, treatment ratio versus control",[9],1.35 *
same,"TAG No 02, treatment ratio versus control",[9],1.47 *
same,"Threonine, treatment ratio versus control",[9],1.3 *
same,"14-Methylhexadecanoic acid, treatment ratio versus control",[10],0.82 *
same,"16-Methylheptadecanoic acid, treatment ratio versus control",[10],0.51 *
same,"18-Hydroxy-11-deoxycorticosterone, treatment ratio versus control",[10],0.49 *
same,"Citrate, treatment ratio versus control",[10],0.93 *
same,"DAG (C18:1, C18:2), treatment ratio versus control",[10],0.66 *
same,"Elaidic acid (C18:trans[9]1), treatment ratio versus control",[10],0.8 *
same,"Isopalmitic acid (C16:0), treatment ratio versus control",[10],0.61 *
same,"Ketoleucine, treatment ratio versus control",[10],0.91 *
same,"Linolenic acid (C18:cis[9,12,15]3), treatment ratio versus control",[10],0.6 *
same,"Lysophosphatidylcholine (C18:0), treatment ratio versus control",[10],0.97 *
same,"Oleic acid (C18:cis[9]1), treatment ratio versus control",[10],0.71 *
same,"Palmitoleic acid (C16:cis[9]1), treatment ratio versus control",[10],0.25 *
same,"TAG (C16:0, C16:1), treatment ratio versus control",[10],0.51 *
same,"trans-4-Hydroxyproline, treatment ratio versus control",[10],0.74 *
C[C@H](CCC(=O)O)[C@H]1CC[C@H]2[C@@H]3CC[C@@H]4C[C@H](O)CC[C@]4(C)[C@H]3CC[C@]12C [Lithocholic acid],"Eicosanoic acid (C20:0), treatment ratio versus control",[1],1.81 *
same,"Glucuronic acid, treatment ratio versus control",[1],0.85 *
same,"Glycerol, polar fraction, treatment ratio versus control",[2],0.93^
same,"Isopalmitic acid (C16:0), treatment ratio versus control",[2],0.63 *
same,"Kynurenic acid, treatment ratio versus control",[2],0.75 *
same,"Glucuronic acid, treatment ratio versus control",[3],1
same,"myo-Inositol-2-phosphate, treatment ratio versus control",[3],1.01
same,"Glycerol, polar fraction, treatment ratio versus control",[4],0.86^
same,"Isopalmitic acid (C16:0), treatment ratio versus control",[4],0.54 *
same,"Kynurenic acid, treatment ratio versus control",[4],0.75 *
same,"Glucuronic acid, treatment ratio versus control",[5],1
same,"Lignoceric acid (C24:0), treatment ratio versus control",[5],1.3 *
same,"Sphingomyelin (d18:1, C16:0), treatment ratio versus control",[5],1.09
same,"Threonine, treatment ratio versus control",[5],1.55 *
same,"Glycerol, polar fraction, treatment ratio versus control",[6],0.73 *
same,"Isopalmitic acid (C16:0), treatment ratio versus control",[6],0.68 *
same,"Kynurenic acid, treatment ratio versus control",[6],0.71^
